Source: PubChem BioAssay AID720665 (NMMLSC, 2013)
Results filed as inconclusive are left out. Calls of active or inactive are those of the source.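 Rule for the calls: active = inhibition of the calcium rise above 50%; inconclusive = dimming of resting cell dye signal by over 25%; inactive = inhibition below 50%.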

Test system: TALL-104 thapsigargin calcium, Fura Red flow cytometry
Experiment: blockers of intracellular Ca signaling in TALL-104 – Fura Red, TALL-104 cells, CherryPick01, mechanism study for lytic granule exocytosis inhibitor project (AID 720665)
Conditions: active compounds read high; dose or concentration not given here

Row | SMILES | inhibition
1 | O=C(CN1C(=O)/C(=C\c2cccc(Br)c2)Oc2ccccc21)NCCCN1CCOCC1 | 1% (inactive)
2 | Fc1ccc(/C=C\c2nccc3c2[nH]c2ccccc23)cc1 | 37.7% (inactive)
